The source of these data is patent US10308644B2, “Heterocyclic compounds as immunomodulators” (Incyte Corporation, priority 2016, dated 2019).

Molecules are shown by their SMILES.

This assay has as its target PD-1/PD-L1 (Homo sapiens (Human), UniProt Q9NZQ7). Nature of the assay: PD-1/PD-L1 Homogeneous Time-Resolved Fluorescence (HTRF) Binding Assay. As to conditions: recombinant human PD-1 (3 nM) and PD-L1 (10 nM), 25° C., PBS pH 7.4. Put shortly: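 Fc-tagged human PD-1 (25-167, 3 nM) and His-tagged PD-L1 (19-238, 10 nM) preincubated with inhibitor 40 min in PBS pH 7.4, 0.05% Tween-20, 0.1% BSA, 1% DMSO, 25 °C. Binding detected by HTRF (Eu anti-IgG/APC anti-His, 665/620 nm) after 60 min; IC50 from percent control activity.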

Chain of PD-1/PD-L1 (Q9NZQ7 19-238): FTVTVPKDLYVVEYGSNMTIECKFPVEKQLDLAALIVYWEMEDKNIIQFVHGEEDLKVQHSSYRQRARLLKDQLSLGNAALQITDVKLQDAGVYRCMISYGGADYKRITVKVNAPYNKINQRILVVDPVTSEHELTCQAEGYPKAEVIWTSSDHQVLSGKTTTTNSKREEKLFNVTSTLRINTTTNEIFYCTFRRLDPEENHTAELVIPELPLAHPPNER

In general, IC50 refers to the midpoint of a concentration-inhibition curve. Turning to `Cc1nc(CN2CC[C@H](O)C2)cnc1OCc1cccc(-c2cccc(-c3nc4cc(CN5CCC(C(=O)O)C5)cc(Cl)c4o3)c2C)c1Cl` (stereo partly drawn) [Example 153, 1-((7-chloro-2-(2′-chloro-3′-((5-(((S)-3-hydroxypyrrolidin-1-yl)methyl)-3-methylpyrazin-2-yloxy)methyl)-2-methylbiphenyl-3-yl)benzo[d]oxazol-5-yl)methyl)pyrrolidine-3-carboxylic acid], the IC50 is at most 10 nM.

Take `Cc1c(-c2nc3cc(CN4CCC(C(=O)O)CC4)cc(C#N)c3o2)cccc1-c1cccc(NC(=O)c2nc3c(n2C)CCNC3)c1Cl` [Example 154, 1-((2-(2′-chloro-2-methyl-3′-(1-methyl-4,5,6,7-tetrahydro-1H-imidazo[4,5-c]pyridine-2-carboxamido)biphenyl-3-yl)-7-cyanobenzo[d]oxazol-5-yl)methyl)piperidine-4-carboxylic acid]: the half-inhibitory concentration (IC50) was at most 10 nM.

On to `Cc1c(-c2nc3cc(CN4CCC(C(=O)O)CC4)cc(C#N)c3o2)cccc1-c1cccc(NC(=O)c2nc3c(n2C)CCN(C[C@@H](C)O)C3)c1Cl` [Example 155, (R)-1-((2-(2′-chloro-3′-(5-(2-hydroxypropyl)-1-methyl-4,5,6,7-tetrahydro-1H-imidazo[4,5-c]pyridine-2-carboxamido)-2-methylbiphenyl-3-yl)-7-cyanobenzo[d]oxazol-5-yl)methyl)piperidine-4-carboxylic acid], for which the half-inhibitory concentration (IC50) was at most 10 nM.

As for `Cc1c(-c2nc3cc(CN4CCC(C(=O)O)CC4)cc(C#N)c3o2)cccc1-c1cccc(NC(=O)c2nc3c(n2C)CCN(CCO)C3)c1Cl` [Example 156, 1-((2-(2′-chloro-3′-(5-(2-hydroxyethyl)-1-methyl-4,5,6,7-tetrahydro-1H-imidazo[4,5-c]pyridine-2-carboxamido)-2-methylbiphenyl-3-yl)-7-cyanobenzo[d]oxazol-5-yl)methyl)piperidine-4-carboxylic acid], the IC50 was at most 10 nM.

For `Cc1c(-c2nc3cc(CN4CC[C@@](C)(C(=O)O)C4)cc(C#N)c3o2)cccc1-c1cccc(NC(=O)c2nc3c(n2C)CCN(C[C@@H](C)O)C3)c1Cl` [Example 157, (R)-1-((2-(2′-chloro-3′-(5-((R)-2-hydroxypropyl)-1-methyl-4,5,6,7-tetrahydro-1H-imidazo[4,5-c]pyridine-2-carboxamido)-2-methylbiphenyl-3-yl)-7-cyanobenzo[d]oxazol-5-yl)methyl)-3-methylpyrrolidine-3-carboxylic acid], the IC50 is at most 10 nM.

For the molecule `Cc1c(-c2nc3cc(CN4CC[C@@](C)(C(=O)O)C4)cc(C#N)c3o2)cccc1-c1cccc(NC(=O)c2nc3c(n2C)CN(C)C3)c1Cl` [Example 158, (R)-1-((2-(2′-chloro-3′-(1,5-dimethyl-1,4,5,6-tetrahydropyrrolo[3,4-d]imidazole-2-carboxamido)-2-methylbiphenyl-3-yl)-7-cyanobenzo[d]oxazol-5-yl)methyl)-3-methyl pyrrolidine-3-carboxylic acid], the IC50 was at most 10 nM.

`Cc1c(-c2nc3cc(CN4CC[C@@H](C(=O)O)C4)cc(C#N)c3o2)cccc1-c1cccc(NC(=O)c2nc3c(n2C)CC(C)NC3)c1Cl` (stereo partly drawn) [Example 159, (3R)-1-((2-(2′-chloro-3′-(1,6-dimethyl-4,5,6,7-tetrahydro-1H-imidazo[4,5-c]pyridine-2-carboxamido)-2-methylbiphenyl-3-yl)-7-cyanobenzo[d]oxazol-5-yl)methyl)pyrrolidine-3-carboxylic acid]: the 50% inhibitory concentration (IC50) is at most 10 nM.

Regarding `Cc1c(-c2nc3cc(CN4CC[C@@H](C(=O)O)C4)cc(C#N)c3o2)cccc1-c1cccc(NC(=O)c2nc3c(n2C)CC(C)N(C)C3)c1Cl` (stereo partly drawn) [Example 160, (3R)-1-((2-(2′-chloro-2-methyl-3′-(1,5,6-trimethyl-4,5,6,7-tetrahydro-1H-imidazo[4,5-c]pyridine-2-carboxamido)biphenyl-3-yl)-7-cyanobenzo[d]oxazol-5-yl)methyl)pyrrolidine-3-carboxylic acid], the IC50 was at most 10 nM.

Regarding `Cc1c(-c2nc3cc(CN4CC[C@@](C)(C(=O)O)C4)cc(C#N)c3o2)cccc1-c1cccc(NC(=O)c2nc3c(n2C)CC(C)N(C)C3)c1Cl` (stereo partly drawn) [Example 161, (3R)-1-((2-(2′-chloro-2-methyl-3′-(1,5,6-trimethyl-4,5,6,7-tetrahydro-1H-imidazo[4,5-c]pyridine-2-carboxamido)biphenyl-3-yl)-7-cyanobenzo[d]oxazol-5-yl)methyl)-3-methylpyrrolidine-3-carboxylic acid], the concentration for half-maximal inhibition (IC50) is at most 10 nM.

As for `Cc1c(-c2nc3cc(CN4CCC(C(=O)O)CC4)cc(C#N)c3o2)cccc1-c1cccc(NC(=O)c2nc3c(n2C)CC(C)N(C)C3)c1Cl` (centres unmarked) [Example 162, 1-((2-(2′-chloro-2-methyl-3′-(1,5,6-trimethyl-4,5,6,7-tetrahydro-1H-imidazo[4,5-c]pyridine-2-carboxamido)biphenyl-3-yl)-7-cyanobenzo[d]oxazol-5-yl)methyl)piperidine-4-carboxylic acid], the IC50 was at most 10 nM.

Turning to `Cc1c(-c2nc3cc(CN4CC[C@@](C)(C(=O)O)C4)cc(C#N)c3o2)cccc1-c1cccc(NC(=O)c2nc3c(n2C)CC(C)NC3)c1Cl` (stereo partly drawn) [Example 163, (3R)-1-((2-(2′-chloro-3′-(1,6-dimethyl-4,5,6,7-tetrahydro-1H-imidazo[4,5-c]pyridine-2-carboxamido)-2-methylbiphenyl-3-yl)-7-cyanobenzo[d]oxazol-5-yl)methyl)-3-methylpyrrolidine-3-carboxylic acid], the IC50 is at most 10 nM.

For `Cc1c(-c2nc3cc(CN4CCC(C(=O)O)CC4)cc(C#N)c3o2)cccc1-c1cccc(NC(=O)c2nc3c(n2C)CC(C)NC3)c1Cl` (centres unmarked) [Example 164, 1-((2-(2′-chloro-3′-(1,6-dimethyl-4,5,6,7-tetrahydro-1H-imidazo[4,5-c]pyridine-2-carboxamido)-2-methylbiphenyl-3-yl)-7-cyanobenzo[d]oxazol-5-yl)methyl)piperidine-4-carboxylic acid], the IC50 was at most 10 nM.

`Cc1c(-c2nc3cc(CN4CC[C@@H](O)C4)cc(C#N)c3o2)cccc1-c1cccc(NC(=O)c2nc3c(n2C)CC(C)(C(=O)O)N(C)C3)c1Cl` (stereo partly drawn) [Example 165, 2-(2-chloro-3′-(7-cyano-5-(((R)-3-hydroxypyrrolidin-1-yl)methyl)benzo[d]oxazol-2-yl)-2′-methylbiphenyl-3-ylcarbamoyl)-1,5,6-trimethyl-4,5,6,7-tetrahydro-1H-imidazo[4,5-c]pyridine-6-carboxylic acid]: the IC50 is at most 10 nM.

As to `Cc1c(Nc2nccc3cc(C4=NCCN4)cnc23)cccc1-c1cccc(-c2nc3cc(CN4CC[C@@H](C(=O)O)C4)cc(C#N)c3o2)c1C` [Example 166, (R)-1-((7-cyano-2-(3′-(3-(4,5-dihydro-1H-imidazol-2-yl)-1,7-naphthyridin-8-ylamino)-2,2′-dimethylbiphenyl-3-yl)benzo[d]oxazol-5-yl)methyl)pyrrolidine-3-carboxylic acid], the IC50 was at most 10 nM.

Regarding `Cc1c(Nc2nccc3cc(CCN4CC[C@@H](O)C4)cnc23)cccc1-c1cccc(-c2nc3cc(CN4CC[C@@H](C(=O)O)C4)cc(C#N)c3o2)c1C` [Example 167, (R)-1-((7-cyano-2-(3′-(3-(2-((R)-3-hydroxypyrrolidin-1-yl)ethyl)-1,7-naphthyridin-8-ylamino)-2,2′-dimethylbiphenyl-3-yl)benzo[d]oxazol-5-yl)methyl)pyrrolidine-3-carboxylic acid], the IC50 was at most 10 nM.

Consider `Cc1c(Nc2nccc3cc(CN4CC[C@@H](O)C4)cnc23)cccc1-c1cccc(-c2nc3cc(CN4CC[C@@H](C(=O)O)C4)cc(C#N)c3o2)c1Cl` [Example 168, (R)-1-((2-(2-chloro-3′-(3-(((R)-3-hydroxypyrrolidin-1-yl)methyl)-1,7-naphthyridin-8-ylamino)-2′-methylbiphenyl-3-yl)-7-cyanobenzo[d]oxazol-5-yl)methyl)pyrrolidine-3-carboxylic acid], for which the 50% inhibitory concentration (IC50) is at most 10 nM.

As to `Cc1c(Nc2nccc3cc(CN4CC[C@@H](O)C4)cnc23)cccc1-c1cccc(-c2nc3cc(CN[C@H]4CC[C@@H](C(=O)O)C4)cc(C#N)c3o2)c1C` [Example 169, (1R,3S)-3-((7-cyano-2-(3′-(3-(((R)-3-hydroxypyrrolidin-1-yl)methyl)-1,7-naphthyridin-8-ylamino)-2,2′-dimethylbiphenyl-3-yl)benzo[d]oxazol-5-yl)methylamino)cyclopentanecarboxylic acid], the 50% inhibitory concentration (IC50) was at most 10 nM.

For `Cc1c(Nc2nccc3cc(CN4CC[C@@H](O)C4)cnc23)cccc1-c1cccc(-c2nc3cc(CN[C@@H]4CC[C@H](C(=O)O)C4)cc(C#N)c3o2)c1C` [Example 170, (1S,3R)-3-((7-cyano-2-(3′-(3-(((R)-3-hydroxypyrrolidin-1-yl)methyl)-1,7-naphthyridin-8-ylamino)-2,2′-dimethylbiphenyl-3-yl)benzo[d]oxazol-5-yl)methylamino)cyclopentanecarboxylic acid], the IC50 is at most 10 nM.

As to `Cc1c(Nc2nccc3cc(CN4CC[C@@H](O)C4)cnc23)cccc1-c1cccc(-c2nc3cc(CNCCc4ccc(C(=O)O)cc4)cc(C#N)c3o2)c1C` [Example 171, (R)-4-(2-((7-cyano-2-(3′-(3-((3-hydroxypyrrolidin-1-yl)methyl)-1,7-naphthyridin-8-ylamino)-2,2′-dimethylbiphenyl-3-yl)benzo[d]oxazol-5-yl)methylamino)ethyl)benzoic acid], the concentration for half-maximal inhibition (IC50) was at most 10 nM.

For `Cc1c(Nc2nccc3cc(CN4CC[C@@H](O)C4)cnc23)cccc1-c1cccc(-c2nc3cc(CN[C@H]4CC[C@@H](C(=O)O)CC4)cc(C#N)c3o2)c1C` [Example 172, cis-4-((7-cyano-2-(3′-(3-(((R)-3-hydroxypyrrolidin-1-yl)methyl)-1,7-naphthyridin-8-ylamino)-2,2′-dimethylbiphenyl-3-yl)benzo[d]oxazol-5-yl)methylamino) cyclohexanecarboxylic acid], the IC50 is at most 10 nM.
